Molecular target: T1, Slc12a8 (Mus musculus, UniProt Q8VI23)
T1 sequence (Q8VI23 1-705): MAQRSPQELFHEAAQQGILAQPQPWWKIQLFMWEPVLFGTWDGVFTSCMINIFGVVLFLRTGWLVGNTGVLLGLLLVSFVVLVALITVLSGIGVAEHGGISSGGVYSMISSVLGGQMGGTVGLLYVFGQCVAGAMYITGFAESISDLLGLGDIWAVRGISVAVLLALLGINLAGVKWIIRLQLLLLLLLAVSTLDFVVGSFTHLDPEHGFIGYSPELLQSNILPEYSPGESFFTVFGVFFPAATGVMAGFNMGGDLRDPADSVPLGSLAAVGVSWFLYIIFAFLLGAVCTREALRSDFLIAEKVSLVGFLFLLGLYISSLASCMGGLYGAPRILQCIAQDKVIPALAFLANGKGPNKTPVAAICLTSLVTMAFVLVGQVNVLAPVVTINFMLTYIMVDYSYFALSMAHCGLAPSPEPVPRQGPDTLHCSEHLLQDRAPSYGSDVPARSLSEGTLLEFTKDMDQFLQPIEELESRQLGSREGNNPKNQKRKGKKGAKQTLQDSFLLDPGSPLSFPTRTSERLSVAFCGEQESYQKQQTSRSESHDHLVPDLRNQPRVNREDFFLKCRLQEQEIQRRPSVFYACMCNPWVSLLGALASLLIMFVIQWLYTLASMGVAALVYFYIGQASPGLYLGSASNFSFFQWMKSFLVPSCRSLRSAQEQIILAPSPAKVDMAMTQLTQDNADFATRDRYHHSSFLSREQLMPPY
Experiment: 3H-NMN uptake into Slc12a8-OE proteoliposomes with cold NMN competition
Format: biochemical

IC50: 22.8 ± 3.6 µM
SMILES: NC(=O)c1ccc[n+]([C@@H]2O[C@H](COP(=O)([O-])O)[C@@H](O)[C@H]2O)c1 [NMN, Nicotinamide mononucleotide]

Source: PMC6530925 (Nature metabolism, 2019)
